Measured values published in US12351571B2, “Substituted quinoxaline compounds as inhibitors of FGFR tyrosine kinases” (ARRAY BIOPHARMA INC., priority 2018, dated 2025).

Key:
dephosphorylated FGFR2 = dephosphorylated FGFR2 (Homo sapiens (Human), UniProt P21802); assay: FGFR Enzyme Binding Assay (HTRF tracer displacement), FGFR2; conditions: 5 nM dephosphorylated FGFR2, 60 minute incubation at 22° C.; read-out: FGFR2 Enz Binding IC50
Procedure: The potency of compounds inhibiting human isoforms of FGFR kinase was determined using Life Technologies' Homogeneous Time Resolved Fluorescence (HTRF)-based binding assay technology. An incubation was conducted with either 5 nM dephosphorylated FGFR1 (Array Biopharma, p1702; SEQ ID NO: 1, amino acids 458 to 765, dephosphorylated by co-expression with PTP1b (protein tyrosine phosphatase 1B)), 5 nM dephosphorylated FGFR2 (Life Technologies, Cat. No. PV4106 that had been dephosphorylated with Lambda protein phosphatase (New England Biolabs, cat #P0753)) or 5 nM phosphorylated FGFR3 (Array Biopharma, p1836; SEQ ID NO: 5, amino acids 449 to 759), 50 nM Kinase Tracer 236 (Life Technologies Cat. No. PR9078A), 2 nM Biotin-anti-6HIS (Life Technologies Cat. No. PV6090) and 2 nM Europium-Streptavidin (Life Technologies Cat. No. PV6025) along with test compound in a buffer consisting of 50 mM HEPES ((4-(2-hydroxyethyl)-1-piperazineethanesulfonic acid, pH 7.5), 5 mM MgCl2, 0.005% Triton X-100, 1 mM DTT, 1 mM NaVO4 and 2% DMSO in a final volume of 12 μL Compounds were typically prepared as a 3-fold or 4-fold serial dilution in DMSO and added to the assay to give the appropriate final concentration. After a 60 minute incubation at 22° C., the extent of tracer displacement was determined using a PerkinElmer EnVision multimode plate reader via HTRF dual wavelength detection, and the percent of control (POC) was calculated using a ratiometric emission factor. One hundred POC was determined using no test compound, and 0 POC was determined in the presence of 1 μM of an appropriate control inhibitor. A 4-parameter logistic curve was fit to the POC values as a function of the concentration of compound, and the IC50 value was the point where the best-fit curve crossed 50 POC.

human wild type FGFR3 [1] = biological target: T1, human wild type FGFR3 (Homo sapiens (Human), UniProt P22607); assay: FGFR3 pERK Cell Assay; type: cell-based; conditions: HEK-293 cells, 1 hour compound, 100 ng/ml human FGF-acidic; maximum concentration 5 μM
T1 sequence (P22607 23-806): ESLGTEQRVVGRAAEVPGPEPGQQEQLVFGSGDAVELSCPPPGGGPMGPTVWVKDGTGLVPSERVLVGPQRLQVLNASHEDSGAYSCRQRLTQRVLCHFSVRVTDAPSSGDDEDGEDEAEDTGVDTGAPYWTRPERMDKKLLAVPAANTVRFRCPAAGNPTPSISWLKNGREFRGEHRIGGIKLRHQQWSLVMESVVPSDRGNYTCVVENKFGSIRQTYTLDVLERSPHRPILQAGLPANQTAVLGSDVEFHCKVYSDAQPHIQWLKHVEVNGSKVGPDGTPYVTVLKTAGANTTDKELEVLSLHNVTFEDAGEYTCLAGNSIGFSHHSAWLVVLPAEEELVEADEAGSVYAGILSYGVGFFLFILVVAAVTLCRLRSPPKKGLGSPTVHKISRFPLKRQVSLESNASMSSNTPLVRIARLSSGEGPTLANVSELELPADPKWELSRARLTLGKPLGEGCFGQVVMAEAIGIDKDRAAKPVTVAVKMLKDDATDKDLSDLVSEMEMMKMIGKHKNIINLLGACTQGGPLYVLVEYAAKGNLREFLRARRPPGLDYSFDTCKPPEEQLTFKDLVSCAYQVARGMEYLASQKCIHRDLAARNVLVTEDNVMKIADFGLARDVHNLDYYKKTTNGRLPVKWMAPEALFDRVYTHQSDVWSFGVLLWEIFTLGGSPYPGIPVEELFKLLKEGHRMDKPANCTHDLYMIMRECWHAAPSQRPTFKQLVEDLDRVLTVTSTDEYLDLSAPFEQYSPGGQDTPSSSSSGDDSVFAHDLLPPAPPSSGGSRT
Procedure: HEK-293 cells transfected with dox-inducible human wild type FGFR3 (SEQ ID NO: 5) were plated in a collagen or poly-D-lysine coated 96 well flat bottom plates at 4×10^5 cells/well in complete DMEM medium containing 10% FBS and 1 μg/ml doxycycline and allowed to attach for 24 h at 37° C., 5% CO2. Cells were treated with compound using 1:3 serial dilutions with a maximum final concentration of 5 μM. Compound was incubated on cells for 1 hour at 37° C., 5% CO2. Cells were then stimulated with a final concentration of 100 ng/ml human FGF-acidic (R&D Systems Cat number 232-FA/CF) for 5 minutes at 37° C., 5% CO2. Medium was removed, and cells were lysed with lysis buffer containing phosphatase and protease inhibitors. Phospho ERK1/2 was measured using the Meso Scale Discovery sandwich assay (Meso Scale Discovery cat. no. K151DWD). The assay captures phospho ERK1/2 and detects with a sulfo-tagged total ERK1/2 antibody. The chemiluminescent signal was read on the Sector Imager Plate reader. 100 POC was determined using no test compounds and 0 POC was determined using a control compound. The POC values were fit to a 4-parameter logistic curve as a function of the concentration of the compound, and the IC50 value is the point where the curve crosses 50 POC.

human wild type FGFR2 = human wild type FGFR2 (Homo sapiens (Human), UniProt P21802); assay: FGFR2 pFGFR Cell Assay; type: cell-based; conditions: HEK-293 cells, 1 hour compound, 30 ng/ml human FGF-acidic, ELISA
Sequence of human wild type FGFR2 (P21802 22-821): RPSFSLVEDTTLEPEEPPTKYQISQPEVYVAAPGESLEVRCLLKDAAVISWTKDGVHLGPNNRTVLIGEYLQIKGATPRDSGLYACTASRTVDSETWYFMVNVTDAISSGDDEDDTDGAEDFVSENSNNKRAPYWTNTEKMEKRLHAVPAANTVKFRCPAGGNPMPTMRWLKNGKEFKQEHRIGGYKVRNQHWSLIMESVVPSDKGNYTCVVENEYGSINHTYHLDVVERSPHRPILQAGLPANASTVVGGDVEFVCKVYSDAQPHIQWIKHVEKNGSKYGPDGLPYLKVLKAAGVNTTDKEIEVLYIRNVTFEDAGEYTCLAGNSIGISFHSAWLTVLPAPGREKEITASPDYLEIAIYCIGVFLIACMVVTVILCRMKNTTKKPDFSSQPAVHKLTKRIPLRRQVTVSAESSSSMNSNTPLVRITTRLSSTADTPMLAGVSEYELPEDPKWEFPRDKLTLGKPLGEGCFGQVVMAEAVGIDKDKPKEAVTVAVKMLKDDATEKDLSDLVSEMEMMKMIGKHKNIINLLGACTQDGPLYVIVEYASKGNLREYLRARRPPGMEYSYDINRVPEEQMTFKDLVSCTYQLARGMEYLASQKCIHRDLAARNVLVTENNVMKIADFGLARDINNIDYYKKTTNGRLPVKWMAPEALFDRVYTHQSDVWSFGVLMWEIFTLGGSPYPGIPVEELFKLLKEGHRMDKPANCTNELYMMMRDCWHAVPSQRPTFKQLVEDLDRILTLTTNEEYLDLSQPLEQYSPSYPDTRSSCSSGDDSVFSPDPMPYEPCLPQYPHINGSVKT
Procedure: (§1) HEK-293 cells transfected with dox-inducible human wild type FGFR2 (SEQ ID NO: 3) were plated in a collagen or poly-D-lysine coated 96 well flat bottom plates at 4×10^5 cells/well in complete DMEM medium containing 10% FBS and 1 μg/ml doxycycline and allowed to attach for 24 h at 37° C., 5% CO2. Cells were treated with compound using 1:3 serial dilutions with a maximum final concentration of 5 μM. Compound was incubated on cells for 1 hour at 37° C., 5% CO2. Cells were then stimulated with a final concentration of 30 ng/ml human FGF-acidic (R&D Systems Cat number 232-FA/CF) for 5 minutes at 37° C., 5% CO2. Medium was removed and cells were lysed with lysis buffer containing phosphatase and protease inhibitors. Phospho FGFR2 was measured by ELISA (R&D Systems cat. no. DYC684). The ELISA captures total FGFR2 and detects total phospho tyrosine. Optical density was measured for each well using a Versamax reader at a wavelength of 450 nm. 100 POC was determined using no test compounds and 0 POC was determined using a control compound. The POC values were fit to a 4-parameter logistic curve as a function of the concentration of the compound, and the IC50 value is the point where the curve crosses 50 POC.

human wild type FGFR3 [2] = biological target: T1, human wild type FGFR3; assay: FGFR3 pFGFR Cell Assay; type: cell-based; conditions: HEK-293 cells, 1 hour compound, 100 ng/ml human FGF-acidic, ELISA
Procedure: as §1, with “FGFR3” for “FGFR2”, “5)” for “3)”, “top” for “maximum”, “100” for “30”, “FGF-acidic” for “FGF-acidic (R&D Systems Cat number 232-FA/CF)”, “cat DYC2719).” for “cat. no. DYC684).”

Sequence of dephosphorylated FGFR2 (P21802 22-821): as above

Row | SMILES | IC50 (dephosphorylated FGFR2) [nM] | IC50 (human wild type FGFR3 [1]) [nM] | IC50 (human wild type FGFR2) [nM] | IC50 (human wild type FGFR3 [2]) [nM]
1 | C=CC(=O)N1CC(C(=O)N2CCC(n3cc(-c4cnc5ccc(Nc6cc(OC)cc(OC)c6)cc5n4)cn3)CC2)C1 [Example 1, 1-(3-(4-(4-(7-((3,5-dimethoxyphenyl)amino)quinoxalin-2-yl)-1H-pyrazol-1-yl)piperidine-1-carbonyl)azetidin-1-yl)prop-2-en-1-one] | 3 | 44 | 140 | 35
2 | C=CC(=O)N1CCC(C(=O)N2CCC(n3cc(-c4cnc5ccc(Nc6cc(OC)cc(OC)c6)cc5n4)cn3)CC2)CC1 [Example 3, 1-(4-(4-(4-(7-((3,5-dimethoxyphenyl)amino)-quinoxalin-2-yl)-1H-pyrazol-1-yl)piperidine-1-carbonyl)piperidin-1-yl)prop-2-en-1-one] | 5 | 135 | 69 | 89
3 | C=CC(=O)N1CC[C@@H](C(=O)N2CCC(n3cc(-c4cnc5ccc(Nc6cc(OC)cc(OC)c6)cc5n4)cn3)CC2)C1 [Example 2, (R)-1-(3-(4-(4-(7-((3,5-dimethoxyphenyl)amino)-quinoxalin-2-yl)-1H-pyrazol-1-yl)piperidine-1-carbonyl)pyrrolidin-1-yl)-prop-2-en-1-one] | 6 | 207 | 117 | 121
4 | C=CC(=O)N1CC(F)(C(=O)N2CCC(n3cc(-c4cnc5ccc(Nc6cc(OC)cc(OC)c6)cc5n4)cn3)CC2)C1 [Example 4, 1-(3-(4-(4-(7-((3,5-dimethoxyphenyl)amino)-quinoxalin-2-yl)-1H-pyrazol-1-yl)piperidine-1-carbonyl)-3-fluoro-azetidin-1-yl)prop-2-en-1-one] | 4 | 20 | – | 17
